Assay results as given in US8648086B2, “5,6-bicyclic heteroaryl-containing urea compounds as kinase inhibitors” (Ascepion Pharmaceuticals, Inc., priority 2009, dated 2014).
Where a name gives a salt, the structure may show the parent alone.

Experiments:
[1] = biological target: T1, VEGFR2 (Homo sapiens, UniProt P35968); assay: VEGFR2 cell-based assay (phospho-VEGFR2 ELISA, transfected CHO cells); conditions: compound at 100 nM, read-out: % VEGFR2 kinase activity remains
T1 construct: expressed in transfected cells; host or cells: CHO cells, pcDNA3.1 plasmid
T1 sequence (P35968 20-1356, species assumed): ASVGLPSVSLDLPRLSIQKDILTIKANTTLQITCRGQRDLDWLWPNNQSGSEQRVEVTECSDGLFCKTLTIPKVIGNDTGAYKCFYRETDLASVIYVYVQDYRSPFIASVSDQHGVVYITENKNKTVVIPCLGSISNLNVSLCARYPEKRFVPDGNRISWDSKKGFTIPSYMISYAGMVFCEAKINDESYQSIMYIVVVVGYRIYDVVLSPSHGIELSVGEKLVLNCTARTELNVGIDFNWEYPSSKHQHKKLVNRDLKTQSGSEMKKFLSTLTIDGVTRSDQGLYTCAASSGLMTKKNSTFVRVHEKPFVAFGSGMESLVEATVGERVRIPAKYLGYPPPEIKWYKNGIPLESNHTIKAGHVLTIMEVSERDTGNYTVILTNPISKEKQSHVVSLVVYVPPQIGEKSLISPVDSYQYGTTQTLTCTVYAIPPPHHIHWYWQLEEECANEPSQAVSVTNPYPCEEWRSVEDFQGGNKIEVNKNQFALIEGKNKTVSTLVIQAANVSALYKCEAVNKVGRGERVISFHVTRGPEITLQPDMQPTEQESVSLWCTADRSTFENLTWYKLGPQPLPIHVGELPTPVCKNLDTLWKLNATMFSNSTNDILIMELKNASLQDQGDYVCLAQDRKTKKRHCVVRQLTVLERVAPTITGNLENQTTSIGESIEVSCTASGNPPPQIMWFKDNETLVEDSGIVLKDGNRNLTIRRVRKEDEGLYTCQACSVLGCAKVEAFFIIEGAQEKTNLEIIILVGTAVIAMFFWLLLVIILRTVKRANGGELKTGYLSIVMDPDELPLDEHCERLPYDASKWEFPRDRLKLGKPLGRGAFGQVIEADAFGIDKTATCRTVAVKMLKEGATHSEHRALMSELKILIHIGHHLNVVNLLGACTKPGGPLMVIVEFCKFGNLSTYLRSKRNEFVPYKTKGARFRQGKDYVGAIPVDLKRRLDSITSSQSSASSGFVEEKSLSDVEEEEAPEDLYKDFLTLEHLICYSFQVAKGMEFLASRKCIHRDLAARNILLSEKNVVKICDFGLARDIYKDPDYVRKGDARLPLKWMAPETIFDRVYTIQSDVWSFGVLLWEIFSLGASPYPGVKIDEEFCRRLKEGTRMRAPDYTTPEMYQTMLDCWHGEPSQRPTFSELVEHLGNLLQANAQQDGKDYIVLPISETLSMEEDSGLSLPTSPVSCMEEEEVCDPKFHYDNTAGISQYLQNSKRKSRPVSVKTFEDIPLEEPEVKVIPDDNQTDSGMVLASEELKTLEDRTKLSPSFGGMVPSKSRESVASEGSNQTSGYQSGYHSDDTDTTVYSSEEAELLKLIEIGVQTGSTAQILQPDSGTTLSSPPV
Procedure, shortened: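 Serum-starved CHO cells transfected with full-length VEGFR2 treated 2 h with compound (0.5–500 nM), then stimulated with 20% FBS. Lysates analyzed by ELISA for phospho- and total VEGFR2 using streptavidin-HRP chemiluminescence.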

[2] = biological target: T2, c-Met (Homo sapiens, UniProt P08581); assay: c-Met cell-based assay (phospho-c-Met ELISA, A549 cells); conditions: compound at 100 nM
T2 construct: endogenous in cells; host or cells: A549 cells
T2 sequence (P08581 25-1390): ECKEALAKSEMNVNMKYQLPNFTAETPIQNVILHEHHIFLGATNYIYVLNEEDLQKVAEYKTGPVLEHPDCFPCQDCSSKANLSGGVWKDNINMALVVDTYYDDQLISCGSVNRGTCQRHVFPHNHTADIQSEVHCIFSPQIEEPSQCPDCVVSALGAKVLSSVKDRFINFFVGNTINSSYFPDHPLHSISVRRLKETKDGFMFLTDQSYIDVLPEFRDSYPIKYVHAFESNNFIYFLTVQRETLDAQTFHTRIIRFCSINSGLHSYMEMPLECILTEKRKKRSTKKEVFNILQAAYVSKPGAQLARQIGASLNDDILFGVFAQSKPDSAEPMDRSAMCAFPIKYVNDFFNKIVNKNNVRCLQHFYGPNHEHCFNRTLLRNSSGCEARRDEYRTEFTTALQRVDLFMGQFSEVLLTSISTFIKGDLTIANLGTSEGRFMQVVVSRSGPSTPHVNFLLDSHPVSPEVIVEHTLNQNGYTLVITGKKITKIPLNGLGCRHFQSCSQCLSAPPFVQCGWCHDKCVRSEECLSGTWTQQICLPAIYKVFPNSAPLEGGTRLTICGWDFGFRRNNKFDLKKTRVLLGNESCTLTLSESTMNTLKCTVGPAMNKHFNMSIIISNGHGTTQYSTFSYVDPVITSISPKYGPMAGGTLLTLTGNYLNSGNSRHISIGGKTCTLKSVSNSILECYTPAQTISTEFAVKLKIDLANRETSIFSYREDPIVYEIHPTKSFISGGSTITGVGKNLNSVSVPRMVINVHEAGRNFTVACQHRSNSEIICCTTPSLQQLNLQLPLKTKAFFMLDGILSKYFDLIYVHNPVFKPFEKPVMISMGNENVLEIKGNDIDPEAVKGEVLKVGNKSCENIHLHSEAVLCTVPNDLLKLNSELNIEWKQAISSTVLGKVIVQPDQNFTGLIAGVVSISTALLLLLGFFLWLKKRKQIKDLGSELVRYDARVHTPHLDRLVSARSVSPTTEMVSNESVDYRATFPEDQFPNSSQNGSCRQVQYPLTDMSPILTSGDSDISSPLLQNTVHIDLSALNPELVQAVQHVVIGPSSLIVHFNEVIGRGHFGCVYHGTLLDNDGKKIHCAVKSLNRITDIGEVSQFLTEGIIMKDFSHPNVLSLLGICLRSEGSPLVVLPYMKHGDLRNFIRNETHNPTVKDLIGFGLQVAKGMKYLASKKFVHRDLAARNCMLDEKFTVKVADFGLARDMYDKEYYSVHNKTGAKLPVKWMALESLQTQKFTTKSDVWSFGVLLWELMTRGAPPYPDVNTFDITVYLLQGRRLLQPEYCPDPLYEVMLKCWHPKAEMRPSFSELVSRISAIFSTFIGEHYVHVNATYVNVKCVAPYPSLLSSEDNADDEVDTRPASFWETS
Procedure, shortened: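 Serum-starved A549 cells (NSCLC) pretreated 2 h with compound (0.5 nM to 500 nM), then stimulated 20 min with 20% FBS. Lysates analysed by ELISA for phospho-c-Met and total c-Met with streptavidin-HRP chemiluminescence.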

[3] = system: MDA-MB-231 human breast cancer cells; assay: In vivo anti-tumor efficacy, MDA-MB-231 xenograft; conditions: Breast cancer MDA-MB-231, nu/nu Balb/c mice, 100 mg/kg oral once per day, n = 2 × 3
Method: (§1) Female (nu/nu) Balb/c athymic mice at 4-6 weeks of age were injected subcutaneously (s.c.) with MDA-MB-231 human breast cancer cells, A549 human non-small cell lung cancer cells, U87-MG human glioblastoma cells, PC-3 human prostate cancer cells, HT-29 human colon cancer, BEL-7404 human hepatocellular carcinoma, or MKN-45 human gastric cancer cells (ATCC, 5×10^6 cells suspended in 100 μl DMEM medium). Treatment was initiated after the tumor mass grown from s.c. implanted tumor cells reached a median volume of 200-400 mm^3. Mice were randomized into groups with three in each group for small-sample efficacy tests such that the median tumor volume is nearly equal among all groups. For large-sample efficacy tests, mice were randomized into groups with thirteen or fourteen in each group. Each group was treated either with compounds (dissolved in 2:1 mixture of PEG400 and 0.01N HCl (v/v)) or without compounds (vehicle only, 2:1 mixture of PEG400 and 0.01N HCl (v/v)) once per day at dose 12.5, 25, 50 or 100 mg/kg by oral gavage. Tumor volumes were assessed at least twice weekly by caliper measurement from the start of treatment. Tumor volume was calculated using the formula ½×L×W^2 (L: length of tumor's long axis, W: length of tumor's short axis). Treatment was applied for at least two weeks or until the tumor volume reaches a size of ˜2500 mm^3 or greater. Mice were humanly sacrificed after the experiment.
(§2) The efficacy of compounds in reducing tumor growth was assessed by the index Tumor Growth Inhibition (TGI). TGI for a given treatment period was calculated using the group mean tumor volumes according to the formula: TGI=100×(VVehicle—group−VTreatment—group)÷VVehicle—group wherein VVehicle—group represents the mean tumor volume for the group treated with vehicle and VTreatment—group represents the mean tumor volume of the group treated with a compound.

[4] = system: MKN-45 human gastric cancer cells; assay: In vivo anti-tumor efficacy, MKN-45 xenograft; conditions: Gastric cancer MKN-45, nu/nu Balb/c mice, 100 mg/kg oral once per day, n = 2 × 3
Method: as §1, with “experiment. The efficacy of compounds in reducing tumor growth was assessed by the index Tumor Growth Inhibition (TGI). TGI for a given treatment period was calculated using the group mean tumor volumes according to the formula: TGI=100×(VVehicle—group−VTreatment—group)÷VVehicle—group wherein VVehicle—group represents the mean tumor volume for the group treated with vehicle and VTreatment—group represents the mean tumor volume of the group treated with a compound.” for “experiment.”

[5] = system: A549 human non-small cell lung cancer cells; assay: In vivo anti-tumor efficacy, A549 xenograft; conditions: Non-small cell lung cancer A549, nu/nu Balb/c mice, n = 2 × 3
Method: as §1, with “experiment. The efficacy of compounds in reducing tumor growth was assessed by the index Tumor Growth Inhibition (TGI). TGI for a given treatment period was calculated using the group mean tumor volumes according to the formula: TGI=100×(VVehicle—group−VTreatment—group)÷VVehicle—group wherein VVehicle—group represents the mean tumor volume for the group treated with vehicle and VTreatment—group represents the mean tumor volume of the group treated with a compound.” for “experiment.”

[6] = system: PC-3 human prostate cancer cells; assay: In vivo anti-tumor efficacy, PC-3 xenograft; conditions: Prostate cancer PC-3, nu/nu Balb/c mice, n = 2 × 3
Method: as §1, with “experiment. The efficacy of compounds in reducing tumor growth was assessed by the index Tumor Growth Inhibition (TGI). TGI for a given treatment period was calculated using the group mean tumor volumes according to the formula: TGI=100×(VVehicle—group−VTreatment—group)÷VVehicle—group wherein VVehicle—group represents the mean tumor volume for the group treated with vehicle and VTreatment—group represents the mean tumor volume of the group treated with a compound.” for “experiment.”

[7] = system: U87-MG human glioblastoma cells; assay: In vivo anti-tumor efficacy, U87-MG xenograft; conditions: nu/nu Balb/c mice, 100 mg/kg oral once per day, n = 2 × 3
Method: Female (nu/nu) Balb/c athymic mice at 4-6 weeks of age were injected subcutaneously (s.c.) with MDA-MB-231 human breast cancer cells, A549 human non-small cell lung cancer cells, U87-MG human glioblastoma cells, PC-3 human prostate cancer cells, HT-29 human colon cancer, BEL-7404 human hepatocellular carcinoma, or MKN-45 human gastric cancer cells (ATCC, 5×10^6 cells suspended in 100 μl DMEM medium). Treatment was initiated after the tumor mass grown from s.c. implanted tumor cells reached a median volume of 200-400 mm^3. Mice were randomized into groups with three in each group for small-sample efficacy tests such that the median tumor volume is nearly equal among all groups. […] Tumor volumes were assessed at least twice weekly by caliper measurement from the start of treatment. Tumor volume was calculated using the formula ½×L×W^2 (L: length of tumor's long axis, W: length of tumor's short axis). […] The efficacy of compounds in reducing tumor growth was assessed by the index Tumor Growth Inhibition (TGI). TGI for a given treatment period was calculated using the group mean tumor volumes according to the formula: TGI=100×(VVehicle—group−VTreatment—group)÷VVehicle—group wherein VVehicle—group represents the mean tumor volume for the group treated with vehicle and VTreatment—group represents the mean tumor volume of the group treated with a compound.

[8] = biological target: T3, PDGFRβ (Homo sapiens, UniProt P09619); assay: PDGFRβ cell-based assay (phospho-PDGFRβ ELISA, transfected CHO cells); conditions: compound at 100 nM, read-out: % PDGFRβ kinase activity remains
T3 construct: expressed in transfected cells; host or cells: CHO cells, pcDNA3.1 plasmid
Method: A standard cell-based assay for PDGFRβ kinase activity can be used to test a compound of this invention and to identify PDGFRβ antagonists.
Specifically, a compound to be tested was first dissolved in DMSO to a concentration of 10 mM and stored at −20° C. The activity of PDGFRβ in cells depends on the phosphorylation level of its intracellular domain induced by the ligand. In order to express PDGFRβ in the cell, full length PDGFRβ sequence was cloned into PC-DNA3.1 vector. The plasmid was then transfected into CHO cells. After 48 hours following the transfection, the expression of PDGFRβ in transfected CHO cells was confirmed by regular western blotting.
To screen the compound of this invention, the ELISA kit (R&D Systems, Minneapolis, Minn., USA) was used. One day before the screening, CHO cells transfected with full length PDGFRβ plasmid were grown in DMEM medium without the presence of serum. On the day of screening, various concentrations of compounds (from 0.5 nM to 500 nM) were added into DMEM medium. Two hours later, 20% of FBS (Fetal Bovine Serum) was added into the medium to stimulate the expression of phosphor-PDGFRβ. Cell lysate from approximately 5×10^5 transfected CHO cells were reacted with anti-phosphor-PDGFRβ or anti-total PDGFRβ antibody in 96 well plates, in the presence of detection antibody, the phosphor-PDGFRβ or total PDGFRβ were detected with Streptavidin-HRP (R&D Systems), followed by chemiluminescent detection.

[9] = system: HT-1299; assay: In vivo anti-tumor efficacy, HT-1299 lung cancer xenograft; conditions: Lung cancer HT-1299, nu/nu Balb/c mice, 100 mg/kg oral once per day, n = 2 × 3
[10] = system: BEL-7404 human hepatocellular carcinoma; assay: In vivo anti-tumor efficacy, BEL-7404 xenograft; conditions: Liver cancer BEL-7404, nu/nu Balb/c mice, 50 mg/kg oral once per day, n = 2 × 3
Method: Female (nu/nu) Balb/c athymic mice at 4-6 weeks of age were injected subcutaneously (s.c.) with MDA-MB-231 human breast cancer cells, A549 human non-small cell lung cancer cells, U87-MG human glioblastoma cells, PC-3 human prostate cancer cells, HT-29 human colon cancer, BEL-7404 human hepatocellular carcinoma, or MKN-45 human gastric cancer cells (ATCC, 5×10^6 cells suspended in 100 μl DMEM medium). Treatment was initiated after the tumor mass grown from s.c. implanted tumor cells reached a median volume of 200-400 mm^3. Mice were randomized into groups with three in each group for small-sample efficacy tests such that the median tumor volume is nearly equal among all groups. […] Tumor volumes were assessed at least twice weekly by caliper measurement from the start of treatment. Tumor volume was calculated using the formula ½×L×W^2 (L: length of tumor's long axis, W: length of tumor's short axis). […]
as §2

[11] = biological target: T4, c-Kit (Homo sapiens, UniProt P10721); assay: KINOMEscan competition binding assay, c-Kit; conditions: compound at 100 nM; lower number indicates stronger hit
T4 construct: purchased KINOMEscan service (Ambit Biosciences, San Diego)
T4 sequence (P10721 26-976): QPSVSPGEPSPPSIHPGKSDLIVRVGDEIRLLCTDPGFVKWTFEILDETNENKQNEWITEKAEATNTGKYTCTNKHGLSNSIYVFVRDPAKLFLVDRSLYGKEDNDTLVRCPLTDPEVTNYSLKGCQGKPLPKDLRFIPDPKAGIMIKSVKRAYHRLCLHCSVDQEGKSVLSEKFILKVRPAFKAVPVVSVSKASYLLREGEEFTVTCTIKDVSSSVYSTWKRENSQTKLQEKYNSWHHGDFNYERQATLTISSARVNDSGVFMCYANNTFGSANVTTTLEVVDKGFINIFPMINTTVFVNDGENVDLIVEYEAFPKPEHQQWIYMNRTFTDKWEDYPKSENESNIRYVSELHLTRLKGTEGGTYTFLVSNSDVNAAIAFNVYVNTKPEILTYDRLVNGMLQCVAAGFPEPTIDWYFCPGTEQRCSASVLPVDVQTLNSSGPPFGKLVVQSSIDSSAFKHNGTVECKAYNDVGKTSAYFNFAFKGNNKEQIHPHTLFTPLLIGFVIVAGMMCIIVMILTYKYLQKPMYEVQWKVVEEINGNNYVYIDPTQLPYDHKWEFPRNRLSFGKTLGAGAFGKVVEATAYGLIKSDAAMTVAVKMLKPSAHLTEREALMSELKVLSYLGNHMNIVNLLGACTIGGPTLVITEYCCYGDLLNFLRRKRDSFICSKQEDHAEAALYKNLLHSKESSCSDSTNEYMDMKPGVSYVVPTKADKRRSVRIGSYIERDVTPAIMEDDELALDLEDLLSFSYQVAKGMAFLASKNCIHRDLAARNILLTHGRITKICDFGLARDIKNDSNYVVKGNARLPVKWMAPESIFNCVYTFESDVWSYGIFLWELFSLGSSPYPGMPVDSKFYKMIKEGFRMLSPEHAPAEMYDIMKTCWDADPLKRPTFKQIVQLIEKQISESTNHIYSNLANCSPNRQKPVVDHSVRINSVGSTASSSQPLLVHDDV
Method: (§3) A standard competition binding assay can be used to test the ability of a compound of this invention on competing with both intended and unintended kinases in vitro. To screen a compound against a large number of human kinases, a competition binding assay with an active-site dependent binding technology was performed by KINOMEscan service (Ambit Biosciences, San Diego, Cal., USA). Three components were combined in this assay—DNA-tagged kinase, immobilized ligand, and the test compound. The ability of the test compound to compete with the immobilized ligand was measured by quantitative PCR of the DNA of the DNA tag. A number of the compounds of this invention were screened at the concentration of 100 nM by this binding assay, and the results were reported as “% Ctrl,” and the lower number indicates stronger “hit” in this matrix.

[12] = biological target: T5, CSF-1R (Homo sapiens, UniProt P07333); assay: KINOMEscan competition binding assay, CSF-1R; conditions: compound at 100 nM; lower number indicates stronger hit
T5 construct: purchased KINOMEscan service (Ambit Biosciences, San Diego)
T5 sequence (P07333 20-972): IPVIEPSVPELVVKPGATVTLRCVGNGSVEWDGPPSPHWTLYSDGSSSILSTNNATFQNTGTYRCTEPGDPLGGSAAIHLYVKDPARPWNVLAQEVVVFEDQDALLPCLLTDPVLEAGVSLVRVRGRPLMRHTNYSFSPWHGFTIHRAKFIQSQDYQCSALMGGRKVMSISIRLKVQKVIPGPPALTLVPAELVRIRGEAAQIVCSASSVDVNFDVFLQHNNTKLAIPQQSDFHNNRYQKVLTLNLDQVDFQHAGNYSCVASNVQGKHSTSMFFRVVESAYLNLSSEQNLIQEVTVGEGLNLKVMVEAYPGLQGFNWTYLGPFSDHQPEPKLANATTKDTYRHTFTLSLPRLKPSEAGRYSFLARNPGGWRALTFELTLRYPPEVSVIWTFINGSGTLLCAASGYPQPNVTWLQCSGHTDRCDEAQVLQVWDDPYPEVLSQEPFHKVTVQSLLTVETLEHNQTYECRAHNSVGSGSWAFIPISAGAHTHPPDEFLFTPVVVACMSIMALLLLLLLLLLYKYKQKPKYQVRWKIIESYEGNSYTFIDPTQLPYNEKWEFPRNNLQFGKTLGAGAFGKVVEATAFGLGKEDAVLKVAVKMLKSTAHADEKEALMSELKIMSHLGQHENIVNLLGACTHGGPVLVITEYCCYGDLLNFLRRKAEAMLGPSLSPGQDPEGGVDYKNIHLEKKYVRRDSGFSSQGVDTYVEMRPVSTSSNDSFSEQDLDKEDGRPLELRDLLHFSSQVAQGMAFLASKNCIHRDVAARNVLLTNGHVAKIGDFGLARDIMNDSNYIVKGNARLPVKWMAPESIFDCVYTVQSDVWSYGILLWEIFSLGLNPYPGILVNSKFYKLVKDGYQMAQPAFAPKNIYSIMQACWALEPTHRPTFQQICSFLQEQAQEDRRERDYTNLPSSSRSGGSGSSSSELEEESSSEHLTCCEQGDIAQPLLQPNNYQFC
Method: as §3

[13] = biological target: T6, EPHA2 (Homo sapiens, UniProt P29317); assay: KINOMEscan competition binding assay, EPHA2; conditions: compound at 100 nM; lower number indicates stronger hit
T6 construct: purchased KINOMEscan service (Ambit Biosciences, San Diego)
Method: as §3

| Compound | remaining activity at 0.1 µM [1] [%] | % c-Met kinase activity remains [2] | Tumor Growth Inhibition (TGI) [3] | Tumor Growth Inhibition (TGI) [4] | Tumor Growth Inhibition (TGI) ([5]; 100 mg/kg oral once per day) | Tumor Growth Inhibition (TGI) ([6]; 100 mg/kg oral once per day) | Tumor Growth Inhibition (TGI) [7] | remaining activity at 0.1 µM [8] [%] | Tumor Growth Inhibition (TGI) [9] | Tumor Growth Inhibition (TGI) [10] | c-Kit % Ctrl [11] [% Ctrl] | CSF-1R % Ctrl [12] [% Ctrl] | EPHA2 % Ctrl [13] [% Ctrl] | Tumor Growth Inhibition (TGI) ([5]; 50 mg/kg oral once per day) | Tumor Growth Inhibition (TGI) ([6]; 50 mg/kg oral once per day) |
| --- | --- | --- | --- | --- | --- | --- | --- | --- | --- | --- | --- | --- | --- | --- | --- |
| COc1ccc(Cl)cc1NC(=O)Nc1cccc2c1CCN2Cc1ccnc2[nH]ccc12.Cl [Example 1, 1-(2-Methoxyl-5-chlorophenyl)-3-[1-(1H-pyrrolo[2,3-b]pyridin-4-ylmethyl)-2,3-dihydro-1H-indol-4-yl]urea hydrochloride] | < 70 | A (the percentage of kinase activity remains is below 70%) | A (the TGI is greater or equal to 50%) |  |  |  |  |  |  |  |  |  |  |  |  |
| COc1ccc(Cl)cc1NC(=O)Nc1cccc2c1ccn2Cc1ccnc2[nH]ccc12.Cl [Example 2a/2b, 1-(2-Methoxyl-5-chlorophenyl)-3-[1-(1H-pyrrolo[2,3-b]pyridin-4-ylmethyl)-1H-indol-4-yl]urea hydrochloride] | < 70 | A (the percentage of kinase activity remains is below 70%) | A (the TGI is greater or equal to 50%) | A (the TGI is greater or equal to 50%) | A (the TGI is greater or equal to 50%) | A (the TGI is greater or equal to 50%) | A (the TGI is greater or equal to 50%) |  |  |  |  |  |  |  |  |
| COc1ccc(Cl)cc1NC(=O)Nc1cccc2c1ccn2Cc1c[nH]c2ncccc12.Cl [Example 3, 1-(2-Methoxyl-5-chlorophenyl)-3-[1-(1H-pyrrolo[2,3-b]pyridin-3-ylmethyl)-1H-indol-4-yl]urea hydrochloride] | < 70 | A (the percentage of kinase activity remains is below 70%) | A (the TGI is greater or equal to 50%) |  | A (the TGI is greater or equal to 50%) |  |  | ≥ 70 | A (the TGI is greater or equal to 50%) |  |  |  |  |  |  |
| O=C(Nc1cccc(Cl)c1)Nc1cccc2c1ccn2Cc1ccnc2[nH]ccc12 [Example 38, 1-(3-Chlorophenyl)-3-[1-(1H-pyrrolo[2,3-b]pyridin-4-ylmethyl)-1H-indol-4-yl]urea hydrochloride] | < 70 | A (the percentage of kinase activity remains is below 70%) | A (the TGI is greater or equal to 50%) |  |  |  |  |  |  | A (the TGI is greater or equal to 50%) |  |  |  |  |  |
| Cc1cccc(NC(=O)Nc2cccc3c2ccn3Cc2ccnc3[nH]ccc23)c1.Cl [Example 44, 1-(3-Methylphenyl)-3-[1-(1H-pyrrolo[2,3-b]pyridin-4-ylmethyl)-1H-indol-4-yl]urea hydrochloride] | < 70 | A (the percentage of kinase activity remains is below 70%) | A (the TGI is greater or equal to 50%) | A (the TGI is greater or equal to 50%) |  |  |  |  |  |  | 0.35 | 0.8 | 6 | A (the TGI is greater or equal to 50%) | A (the TGI is greater or equal to 50%) |
